Test results: patent US12459941B2, “Tricyclic IRAK inhibitors” (Rigel Pharmaceuticals, Inc., priority 2022, dated 2025)
Counter-ions that a name gives are not always drawn.

What was measured:
IL23-p19 = assay: LPS induced IL23p19 in THP-1 cells (IFNγ primed), sandwich ELISA; assay type: cell-based; details: Homo sapiens; THP-1 cells primed with IFNγ, LPS 1 μg/mL, 10 pt curve; read-out: IL23-p19 ELISA, THP1-IFNy, LPS, 10 pt
From the text: LPS Induced IL23p19 in THP-1 Cells (with IFNγ Primed) Assay
THP-1 Cells (ATCC, Cat #TIB-202), Dimethyl Sulfoxide (DMSO) (Sigma-Aldrich, Cat #D2650), RPMI 1640 (Cellgro, Cat #10-040-CM), Fetal Bovine Serum (Sigma, Cat #F4135), Albumin From Bovine Serum (BSA) (Sigma-Aldrich, Cat #A7906), LPS (Serotype K-235, Sigma, Product Number L 2143), IFNγ (Peprotech, Cat #300-02), Capture antibody: Human IL-23p19 ELISA (e-Bioscience, Cat. #14-7238-85), Detection antibody: Primary Mouse Biotinylated anti-human IL-12(p40/p70) (e-Bioscience, Cat. #13-7129-85), Secondary HRP-conjugated Streptavidin (R&D Systems, Cat #DY998), 1×PBST Washing Buffer (PBS-Tween tablet) (VWR International, Cat #80058-558), ELISA Blocking Buffer (PBS with 1% BSA), ELISA Dilution Buffer (PBS with 1% BSA), 384 Well Flat-Bottom, MaxiSorp Black Immuno Plates (Thermo Scientific, Cat #12-565-346), 384 Well Flat-Bottom, White Tissue Culture Plates (Thermo Scientific, Cat #12-565-343), Super Signal ELISA Pico Chemiluminescent Substrate (Thermo Scientific, Cat #37070), Cell Titer Glo reagent (Promega, Cat #G7573), Positive control, IKK2VI inhibitor (Calbiochem, Cat #401483), AquaMax 4000 plate washer (Molecular Devices), Luminometer, Wallac Victor2 1420 Multilabel Counter.
On day 1, 50K/well THP-1 cells were seeded and primed with IFNγ (50 ng/mL) in 384-well plates for about 18 hours in RPMI media with 10% FBS. On day 2, the compound was serially diluted in DMSO from 5 mM in 3-fold dilutions, and then diluted 1:125 in RPMI media with 10% FBS. 50 μL/well 2× compound was added to 50 μL/well THP-1 cells (with IFNγ primed) in duplicate in 384 well tissue culture plates. The cells were pre-incubated with compound for 1 hour at 37° C., 5% CO2 before addition of 10 μL/well 11×LPS to give a final concentration of 1 μg/mL LPS. Day 3, after stimulation for 18 hours at 37° C., 5% CO2, the assay plate was centrifuged and 70 μL/well supernatant was harvested. IL-23p19 protein in 70 μL/well of supernatant was measured by sandwich ELISA, and 25 μl/well Cell Titer Glo reagent was added to the remaining cells to measure compound toxicity.
Human IL-23p19 Sandwich ELISA:
Maxisorp immuno ELISA plates were pre-coated with 25 μL/well of anti-IL-23p19 capture antibody (2.5 ug/mL) in PBS overnight at room temperature. After washing with 1×PBST, the plates were blocked using 100 μL/well of 1% BSA in PBS for 2 hours at room temperature. The plates were washed three times with 1×PBST and 70 μL/well supernatant were added. The plates were incubated at room temperature for 2 hours with shaking and washed three times with 1×PBST. 25 μL/well of biotin labeled anti-IL-12(p40/p70) detection antibody (100 ng/mL) in PBS with 1% BSA was added and the plates were incubated at room temperature for 2 hours with shaking. After washing three times with 1×PBST, 25 μL/well of streptavidin-HRP (1:200) in PBS with 1% BSA was added and the plates were incubated at room temperature for 20 minutes with shaking. The plates were washed three times with 1×PBST and 25 μL/well of Super Signal ELISA Pico Chemiluminescent Substrate were added. The plates were read with a luminometer, and the chemiluminescence values were entered into Athena (Rigel) for curve fitting, EC50 calculation, and database storage.

IRAK4 = target: T1, IRAK4 (Homo sapiens, UniProt Q9NWZ3); assay: IRAK4 ADP-Glo assay; assay type: biochemical; details: 8 pt curve; read-out: IRAK4 ADP-Glo Kinase, 8 pt
T1 construct: purchased Signalchem I12-10G-20
T1 sequence (Q9NWZ3 1-460): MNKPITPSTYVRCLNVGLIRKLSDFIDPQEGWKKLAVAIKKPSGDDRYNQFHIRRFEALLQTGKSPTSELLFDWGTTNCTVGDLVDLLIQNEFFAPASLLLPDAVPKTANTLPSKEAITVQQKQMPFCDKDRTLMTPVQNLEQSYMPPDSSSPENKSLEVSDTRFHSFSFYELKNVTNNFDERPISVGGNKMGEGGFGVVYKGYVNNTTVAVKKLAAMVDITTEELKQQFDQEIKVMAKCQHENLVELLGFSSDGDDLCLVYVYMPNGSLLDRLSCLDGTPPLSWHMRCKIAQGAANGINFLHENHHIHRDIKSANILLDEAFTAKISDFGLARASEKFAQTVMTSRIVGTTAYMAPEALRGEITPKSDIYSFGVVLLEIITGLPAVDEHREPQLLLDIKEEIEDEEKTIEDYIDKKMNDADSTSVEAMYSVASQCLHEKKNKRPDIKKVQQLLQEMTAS
Protocol: IRAK4 Kinase Enzyme (Signalchem, I12-10G-20); 0.1M DTT (Signalchem, D86-09B); MBP Substrate (Signalchem, M42-51N); ADP Glo (Promega, V9101); 1M MgCl2 (Teknova, M03304); 1M Tris-HCl pH7.4 (Teknova, T1074); BSA (Sigma (A3059); Distilled H2O
Wallac Victor2 1420 Multilabel Counter
The ADP-Glo™ reagents were thawed at ambient temperature. The Kinase Detection Reagent was prepared by mixing kinase detection buffer with the lyophilized kinase detection substrate, and set aside.
A stock volume of 5× Reaction Kinase Buffer was made with a final concentration of 100 mM MgCl2, 200 mM Tris-HCl, and 0.5 mg/ml of BSA, in distilled H2O with a final pH7.4. A 2× working stock volume of Reaction Kinase Buffer was made containing a final concentration of […].
The components of IRAK4 Enzyme were thawed on ice. Diluted IRAK4 in 1× Kinase Reaction Buffer (diluted from 2× buffer) was prepared at […]. A […] working stock ATP Assay Solution was prepared in 1× Kinase Reaction Buffer (diluted from 2× buffer).
The compound was diluted in DMSO from 250 µM in 4-fold series dilutions for 8 points. Then diluted 1:5 in 2× Reaction Buffer in a 96 well plate. 1.01 was transferred to a 384 well plate in duplicate. […] 1 μl of 1 mg/ml stock solution of MBP substrate was added NOTE: MBP can be combined with ATP mix with equal volume and then added at 2 d/well. Final reaction volume was 5 μl.
The plate was centrifuged and the reaction mixture was incubated at room temperature for 60 minutes or at 30° C. for 30 minutes.
The reaction was terminated and the remaining ATP was depleted by adding 5 μl of ADP-Glo™ Reagent. The 384-well plate was centrifuged and then the reaction mixture was incubated for another 40 minutes at ambient temperature.
10 μl of the Kinase Detection Reagent was added. The plate was centrifuged and then the reaction mixture was incubated for another 30 minutes at ambient temperature.
The 384-well reaction plate was read using the WALLAC plate reader (Luminescence 0.1s).

IRAK1 = IRAK1 (Homo sapiens, UniProt P51617); assay: IRAK1 ADP-Glo Kinase assay; assay type: biochemical; details: 8 pt curve
TNFa [1] = assay: TNFa ELISA, PBMC, Resiquimod (R848) stimulated; assay type: cell-based; details: 10 pt curve
TNFa [2] = assay: TNFa ELISA, dendritic cells, Gardiquimod stimulated; assay type: cell-based; details: Homo sapiens, Dendritic cell, 10 pt curve
TNFa [3] = assay: TNFa ELISA, THP1-IFNy, LTA stimulated; assay type: cell-based; details: 10 pt curve

IRAK1, sequence (P51617 whole entry): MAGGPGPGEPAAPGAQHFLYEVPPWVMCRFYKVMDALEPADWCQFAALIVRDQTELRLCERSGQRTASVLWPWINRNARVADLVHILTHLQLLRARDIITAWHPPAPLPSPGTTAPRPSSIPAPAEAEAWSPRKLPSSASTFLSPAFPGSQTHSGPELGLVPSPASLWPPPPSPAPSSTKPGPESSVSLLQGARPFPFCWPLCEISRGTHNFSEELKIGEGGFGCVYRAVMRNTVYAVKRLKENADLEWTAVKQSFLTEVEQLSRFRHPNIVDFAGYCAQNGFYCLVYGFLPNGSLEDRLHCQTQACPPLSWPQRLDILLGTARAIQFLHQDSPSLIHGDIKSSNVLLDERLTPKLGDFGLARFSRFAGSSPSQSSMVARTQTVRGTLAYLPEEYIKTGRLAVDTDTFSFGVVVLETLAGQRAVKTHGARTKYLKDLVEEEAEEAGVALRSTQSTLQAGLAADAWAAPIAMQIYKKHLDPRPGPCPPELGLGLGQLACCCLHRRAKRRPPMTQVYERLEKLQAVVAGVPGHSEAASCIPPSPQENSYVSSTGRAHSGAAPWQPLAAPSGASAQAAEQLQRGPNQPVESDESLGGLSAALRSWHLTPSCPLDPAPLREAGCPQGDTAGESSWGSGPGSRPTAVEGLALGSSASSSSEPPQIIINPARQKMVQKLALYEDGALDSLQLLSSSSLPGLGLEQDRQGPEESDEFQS

| EC50 (IL23-p19) [nM] | IC50 (IRAK4) [nM] | IC50 (IRAK1) [nM] | EC50 (TNFa [1]) [nM] | EC50 (TNFa [2]) [nM] | EC50 (TNFa [3]) [nM] | EC50 (TNFa [1]; formic acid salt) [nM] | Compound |
| --- | --- | --- | --- | --- | --- | --- | --- |
| 8470 | 55.9 | 6260 | 304 | – | – | – | O=C1CC[C@@H](COc2nccc3cc4c(=O)[nH]cc(C5CCCC5)c4cc23)N1 [I-13, (S)-4-cyclopentyl-6-((5-oxopyrrolidin-2-yl)methoxy)pyrido[3,4-g]isoquinolin-1(2H)-one] |
| 79.6 | 69.2 | – | 392 | 6220 | – | – | Cc1c[nH]c(=O)c2cc3ccnc(OC[C@@H]4CCC(=O)N4)c3cc12 [I-25, (S)-4-methyl-6-((5-oxopyrrolidin-2-yl)methoxy)pyrido[3,4-g]isoquinolin-1(2H)-one] |
| 377 | 55.7 | – | 283 | 316 | – | – | CC#Cc1c[nH]c(=O)c2cc3ccnc(OC[C@@H]4CCC(=O)N4)c3cc12 [I-24, (S)-6-((5-oxopyrrolidin-2-yl)methoxy)-4-(prop-1-yn-1-yl)pyrido[3,4-g]isoquinolin-1(2H)-one] |
| 2260 | 212 | – | 2020 | 18300 | – | – | O=C1CC[C@@H](COc2nccc3cc4c(=O)[nH]cc(C(F)(F)F)c4cc23)N1 [I-30, (S)-6-((5-oxopyrrolidin-2-yl)methoxy)-4-(trifluoromethyl)pyrido[3,4-g]isoquinolin-1(2H)-one] |
| 778 | 5.8 | 777 | 422 | 1500 | – | – | O=C1CC[C@@H](COc2nccc3cc4c(=O)[nH]cc(C#CCO)c4cc23)N1 [I-21, (S)-4-(3-hydroxyprop-1-yn-1-yl)-6-((5-oxopyrrolidin-2-yl)methoxy)pyrido[3,4-g]isoquinolin-1(2H)-one] |
| 956 | 4.9 | 4770 | 187 | 196 | – | – | O=C1CC[C@@H](COc2nccc3cc4c(=O)[nH]cc(C5CC5)c4cc23)N1 [I-14, (S)-4-cyclopropyl-6-((5-oxopyrrolidin-2-yl)methoxy)pyrido[3,4-g]isoquinolin-1(2H)-one] |
| 38700 | 303 | – | 6970 | – | – | – | CC(C)(O)c1c[nH]c(=O)c2cc3ccnc(OC[C@@H]4CCC(=O)N4)c3cc12 [I-20, (S)-4-(2-hydroxypropan-2-yl)-6-((5-oxopyrrolidin-2-yl)methoxy)pyrido[3,4-g]isoquinolin-1(2H)-one] |
| 14000 | 1430 | 34600 | 1460 | 9090 | – | – | NCC#Cc1c[nH]c(=O)c2cc3ccnc(OC[C@@H]4CCC(=O)N4)c3cc12 [I-29, (S)-4-(3-aminoprop-1-yn-1-yl)-6-((5-oxopyrrolidin-2-yl)methoxy)pyrido[3,4-g]isoquinolin-1(2H)-one] |
| 6980 | 10.4 | 9080 | 4470 | 2010 | – | – | O=C1CC[C@@H](COc2nccc3cc4c(=O)[nH]cc(CCO)c4cc23)N1 [I-22, (S)-4-(2-hydroxyethyl)-6-((5-oxopyrrolidin-2-yl)methoxy)pyrido[3,4-g]isoquinolin-1(2H)-one] |
| 501 | 6.2 | 8370 | 68.3 | – | – | – | CC(C)c1c[nH]c(=O)c2cc3ccnc(OC[C@@H]4CCC(=O)N4)c3cc12 [I-15, (S)-4-isopropyl-6-((5-oxopyrrolidin-2-yl)methoxy)pyrido[3,4-g]isoquinolin-1(2H)-one] |
| 16100 | 21.4 | 10600 | 360 | 607 | – | – | O=C1CC[C@@H](COc2nccc3cc4c(=O)[nH]cc(CC(F)F)c4cc23)N1 [I-17, (S)-4-(2,2-difluoroethyl)-6-((5-oxopyrrolidin-2-yl)methoxy)pyrido[3,4-g]isoquinolin-1(2H)-one] |
| – | 4.2 | 27.7 | 5.2 | 2 | – | – | CC[C@@H]1[C@H](F)C(=O)N[C@@H]1COc1nccc2cc3c(=O)[nH]cc(I)c3cc12 [I-44, 6-(((2S,3S,4S)-3-ethyl-4-fluoro-5-oxopyrrolidin-2-yl)methoxy)-4-iodopyrido[3,4-g]isoquinolin-1(2H)-one] |
| – | 4.8 | 4280 | 192 | 215 | – | – | C=Cc1c[nH]c(=O)c2cc3ccnc(OC[C@@H]4CCC(=O)N4)c3cc12 [I-7, (S)-6-((5-oxopyrrolidin-2-yl)methoxy)-4-vinylpyrido[3,4-g]isoquinolin-1(2H)-one] |
| – | 6.7 | 3840 | – | – | 274 | 135 | Cc1c[nH]c(=O)c2cc3ccnc(OC[C@@H]4CCC(=O)N4)c3cc12 [I-2, (S)-4-methyl-6-((5-oxopyrrolidin-2-yl)methoxy)pyrido[3,4-g]isoquinolin-1(2H)-one formic acid salt] |
